Reference: paper PMC10882719 (Frontiers in Neuroscience, 2024)
Like-named read-outs stand apart in the source and are kept apart here.

Assays:
Format in all cases: cell-based
168 GPCRs [1] = molecular target: T1, 168 GPCRs (Homo sapiens, UniProt O14842)
T1 construct: host or cells: PathHunter cell lines

168 GPCRs [2] = molecular target: T2, 168 GPCRs (Homo sapiens, UniProt P08912)
T2 construct: host or cells: PathHunter cell lines
T2 sequence (P08912 1-532): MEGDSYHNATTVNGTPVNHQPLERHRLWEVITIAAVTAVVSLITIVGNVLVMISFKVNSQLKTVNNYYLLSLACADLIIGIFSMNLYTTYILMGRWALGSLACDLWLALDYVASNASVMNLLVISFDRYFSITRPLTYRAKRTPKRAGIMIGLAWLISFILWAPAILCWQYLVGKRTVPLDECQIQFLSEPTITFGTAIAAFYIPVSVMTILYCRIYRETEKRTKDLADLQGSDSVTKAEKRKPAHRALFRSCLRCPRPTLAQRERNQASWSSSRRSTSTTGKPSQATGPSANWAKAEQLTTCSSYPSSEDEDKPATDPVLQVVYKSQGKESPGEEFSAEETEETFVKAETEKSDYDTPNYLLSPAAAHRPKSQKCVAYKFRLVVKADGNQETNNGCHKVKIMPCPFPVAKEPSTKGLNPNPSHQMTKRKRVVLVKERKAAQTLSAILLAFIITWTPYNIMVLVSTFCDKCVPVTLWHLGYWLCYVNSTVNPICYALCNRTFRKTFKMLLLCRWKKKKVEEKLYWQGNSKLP

168 GPCRs [3] = molecular target: T3, 168 GPCRs (Homo sapiens, UniProt P21918)
T3 construct: host or cells: PathHunter cell lines

168 GPCRs [4] = molecular target: T4, 168 GPCRs (Homo sapiens, UniProt P32239); conditions: CCKBR
T4 construct: host or cells: PathHunter cell lines
T4 sequence (P32239 1-447): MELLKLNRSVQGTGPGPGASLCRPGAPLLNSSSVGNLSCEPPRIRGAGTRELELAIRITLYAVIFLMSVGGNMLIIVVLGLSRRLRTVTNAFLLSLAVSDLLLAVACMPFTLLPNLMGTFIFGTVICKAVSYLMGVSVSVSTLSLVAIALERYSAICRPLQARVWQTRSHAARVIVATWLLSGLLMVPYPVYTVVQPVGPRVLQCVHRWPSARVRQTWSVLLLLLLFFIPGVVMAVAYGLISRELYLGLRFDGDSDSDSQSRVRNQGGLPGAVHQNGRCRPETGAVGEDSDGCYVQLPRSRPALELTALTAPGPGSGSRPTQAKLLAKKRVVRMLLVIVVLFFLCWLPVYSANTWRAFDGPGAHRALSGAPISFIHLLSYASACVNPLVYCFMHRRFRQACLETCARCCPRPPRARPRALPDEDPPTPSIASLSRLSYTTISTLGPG

168 GPCRs [5] = molecular target: T5, 168 GPCRs (Homo sapiens, UniProt P32302)
T5 construct: host or cells: PathHunter cell lines
T5 sequence (P32302 1-372): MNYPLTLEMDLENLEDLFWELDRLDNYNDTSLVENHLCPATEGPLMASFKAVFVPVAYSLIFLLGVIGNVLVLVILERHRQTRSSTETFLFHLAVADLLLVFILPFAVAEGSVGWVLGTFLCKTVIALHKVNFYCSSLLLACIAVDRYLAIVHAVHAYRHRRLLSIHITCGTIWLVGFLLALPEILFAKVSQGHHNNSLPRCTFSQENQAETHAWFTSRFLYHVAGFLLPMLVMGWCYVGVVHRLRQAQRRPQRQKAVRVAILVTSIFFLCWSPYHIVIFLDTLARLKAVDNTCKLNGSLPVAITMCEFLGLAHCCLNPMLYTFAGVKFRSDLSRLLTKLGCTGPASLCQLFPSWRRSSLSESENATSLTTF

168 GPCRs [6] = molecular target: T6, 168 GPCRs (Homo sapiens, UniProt P43119); conditions: PTGIR
T6 construct: host or cells: PathHunter cell lines

168 GPCRs [7] = molecular target: T7, 168 GPCRs (Homo sapiens, UniProt P49682)
T7 construct: host or cells: PathHunter cell lines
T7 sequence (P49682 1-368): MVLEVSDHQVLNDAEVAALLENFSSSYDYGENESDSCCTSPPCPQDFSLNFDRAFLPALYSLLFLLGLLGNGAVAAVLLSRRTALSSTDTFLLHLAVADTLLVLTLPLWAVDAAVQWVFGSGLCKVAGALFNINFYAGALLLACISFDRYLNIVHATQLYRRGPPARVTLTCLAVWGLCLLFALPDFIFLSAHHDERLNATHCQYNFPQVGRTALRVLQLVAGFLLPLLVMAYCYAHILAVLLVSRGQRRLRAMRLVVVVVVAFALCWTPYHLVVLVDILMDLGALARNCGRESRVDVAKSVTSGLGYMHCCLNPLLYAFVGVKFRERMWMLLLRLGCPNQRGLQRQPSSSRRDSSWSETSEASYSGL

T3 sequence (P21918 whole entry): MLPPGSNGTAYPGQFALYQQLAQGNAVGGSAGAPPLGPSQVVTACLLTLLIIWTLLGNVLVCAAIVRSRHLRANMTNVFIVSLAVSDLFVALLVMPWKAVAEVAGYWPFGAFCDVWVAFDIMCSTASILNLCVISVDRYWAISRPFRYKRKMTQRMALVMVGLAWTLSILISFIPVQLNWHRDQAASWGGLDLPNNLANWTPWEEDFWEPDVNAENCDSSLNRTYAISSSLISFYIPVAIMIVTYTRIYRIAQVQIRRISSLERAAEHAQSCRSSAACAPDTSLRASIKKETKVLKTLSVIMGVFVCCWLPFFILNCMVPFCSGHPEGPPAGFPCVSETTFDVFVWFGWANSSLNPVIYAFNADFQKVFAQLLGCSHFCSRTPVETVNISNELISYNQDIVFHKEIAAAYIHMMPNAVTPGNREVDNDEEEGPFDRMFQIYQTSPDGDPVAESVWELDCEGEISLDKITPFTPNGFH
T6 sequence (P43119 whole entry): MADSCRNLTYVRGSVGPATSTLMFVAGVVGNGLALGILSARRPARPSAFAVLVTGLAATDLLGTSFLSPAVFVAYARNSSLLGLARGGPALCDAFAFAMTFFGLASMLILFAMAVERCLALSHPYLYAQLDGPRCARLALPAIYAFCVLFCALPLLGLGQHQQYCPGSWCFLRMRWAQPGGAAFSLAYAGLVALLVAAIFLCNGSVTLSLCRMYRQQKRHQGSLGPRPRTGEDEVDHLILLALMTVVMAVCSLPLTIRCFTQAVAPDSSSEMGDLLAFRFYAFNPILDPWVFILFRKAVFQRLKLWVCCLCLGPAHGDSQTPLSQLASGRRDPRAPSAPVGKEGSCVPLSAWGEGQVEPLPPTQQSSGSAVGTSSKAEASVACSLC
T1 sequence (O14842 whole entry): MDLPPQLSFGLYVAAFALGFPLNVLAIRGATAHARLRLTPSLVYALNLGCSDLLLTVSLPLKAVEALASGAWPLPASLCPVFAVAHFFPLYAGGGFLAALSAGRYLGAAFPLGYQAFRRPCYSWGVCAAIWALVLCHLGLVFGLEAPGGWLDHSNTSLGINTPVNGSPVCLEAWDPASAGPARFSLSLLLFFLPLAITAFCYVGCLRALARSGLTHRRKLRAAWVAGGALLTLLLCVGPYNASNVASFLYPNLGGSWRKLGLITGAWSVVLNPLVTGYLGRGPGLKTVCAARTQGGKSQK

| SMILES | % Agonist Activity (168 GPCRs [1]; FFAR1, 1 uM) | % Antagonist Activity (168 GPCRs [1]; FFAR1, 1 uM) | % Agonist Activity (168 GPCRs [1]; FFAR1, 10 uM) | % Antagonist Activity (168 GPCRs [1]; FFAR1, 10 uM) | % Agonist Activity (168 GPCRs [2]; CHRM5, 1 uM) | % Antagonist Activity (168 GPCRs [2]; CHRM5, 1 uM) | % Agonist Activity (168 GPCRs [2]; CHRM5, 10 uM) | % Antagonist Activity (168 GPCRs [2]; CHRM5, 10 uM) | % Agonist Activity (168 GPCRs [3]; DRD5, 1 uM) | % Antagonist Activity (168 GPCRs [3]; DRD5, 1 uM) | % Agonist Activity (168 GPCRs [3]; DRD5, 10 uM) | % Antagonist Activity (168 GPCRs [3]; DRD5, 10 uM) | % Agonist Activity (168 GPCRs [4]; 1 uM) | % Antagonist Activity (168 GPCRs [4]; 1 uM) | % Agonist Activity (168 GPCRs [4]; 10 uM) | % Antagonist Activity (168 GPCRs [4]; 10 uM) | % Agonist Activity (168 GPCRs [5]; CXCR5, 1 uM) | % Antagonist Activity (168 GPCRs [5]; CXCR5, 1 uM) | % Agonist Activity (168 GPCRs [5]; CXCR5, 10 uM) | % Antagonist Activity (168 GPCRs [5]; CXCR5, 10 uM) | other results |
| --- | --- | --- | --- | --- | --- | --- | --- | --- | --- | --- | --- | --- | --- | --- | --- | --- | --- | --- | --- | --- | --- |
| CNC(C)C(=O)c1ccc2c(c1)OCO2 (centres unmarked) [methylone] | 1.7% | -7.9% | 4.5% | -13.8% | 7.2% | -8% | 8.7% | -7.6% | -0.1% | -5.9% | -0.2% | -2.6% | -1% | -1.1% | 1.5% | -2.4% | 2.5% | -4.3% | 1.4% | -15.1% | % Agonist Activity (168 GPCRs [6]; Conc 1 uM): -4.4%; % Antagonist Activity (168 GPCRs [6]; Conc 1 uM): 12.4%; % Agonist Activity (168 GPCRs [6]; Conc 10 uM): -2.3%; % Antagonist Activity (168 GPCRs [6]; Conc 10 uM): -21.5%; % Agonist Activity (168 GPCRs [7]; CXCR3, 1 uM): -0.2%; % Antagonist Activity (168 GPCRs [7]; CXCR3, 1 uM): 4.5%; % Agonist Activity (168 GPCRs [7]; CXCR3, 10 uM): 1.6%; % Antagonist Activity (168 GPCRs [7]; CXCR3, 10 uM): -3.9% |
| CNC(C)Cc1ccc2c(c1)OCO2 (centres unmarked) [MDMA, 3,4-Methylenedioxy methamphetamine, reference compound] | 3.9% | -5.6% | 7% | -0.4% | 8.8% | 11.2% | 8.3% | 14.4% | 1.7% | 10.8% | 1.4% | 10.5% | 2.3% | 3.2% | 1.2% | 5.2% | 2.7% | -4.4% | 1.4% | 3.2% | % Agonist Activity (168 GPCRs [6]; Conc 1 uM): 2.3%; % Antagonist Activity (168 GPCRs [6]; Conc 1 uM): 18.8%; % Agonist Activity (168 GPCRs [6]; Conc 10 uM): 8.6%; % Antagonist Activity (168 GPCRs [6]; Conc 10 uM): 22.7%; % Agonist Activity (168 GPCRs [7]; CXCR3, 1 uM): -3.7%; % Antagonist Activity (168 GPCRs [7]; CXCR3, 1 uM): 11.3%; % Agonist Activity (168 GPCRs [7]; CXCR3, 10 uM): -4.7%; % Antagonist Activity (168 GPCRs [7]; CXCR3, 10 uM): 17.9% |
